Data on 14 molecules can be found in patent US9961897B2, “Fungicidal pyrazoles” (E. I. DU PONT DE NEMOURS AND COMPANY, priority 2013, dated 2018).

Marks after values point to notes of the source that are not given here.

Holding throughout (type): in vivo
Assay [1] relates to Blumeria graminis f. sp. tritici. Briefly: Test D: wheat powdery mildew, preventive spray on wheat seedlings, visual disease rating. To be noted: 100 = 100% disease control, 0 = no control. From the text:
(§1) General protocol for preparing test suspensions for Tests A-E: the test compounds were first dissolved in acetone in an amount equal to 3% of the final volume and then suspended at the desired concentration (in ppm) in acetone and purified water (50/50 mix by volume) containing 250 ppm of the surfactant Trem® 014 (polyhydric alcohol esters). The resulting test suspensions were then used in Tests A-E. Spraying a 200 ppm test suspension to the point of run-off on the test plants was the equivalent of a rate of 800 g/ha.
The test suspension was sprayed to the point of run-off on wheat seedlings. The following day the seedlings were inoculated with a spore dust of Blumeria graminis f. sp. tritici, also known as Erysiphe graminis f. sp. tritici (the causal agent of wheat powdery mildew) and incubated in a growth chamber at 20° C. for 8 days, after which time visual disease ratings were made.
(§2) Results for Tests A-E are given in Table A. In the Table, a rating of 100 indicates 100% disease control and a rating of 0 indicates no disease control (relative to the controls). All results are for compounds tested at 200 ppm except where followed by an asterisk “*” which indicates the compound was tested at 250 ppm. A dash (-) indicates no test results.

In the next assay the test system is Botrytis cinerea. In words: Test C: tomato Botrytis, preventive spray on tomato seedlings, visual disease rating. To be noted: 100 = 100% disease control, 0 = no control.
From the text: as §1
The test suspension was sprayed to the point of run-off on tomato seedlings. The following day the seedlings were inoculated with a spore suspension of Botrytis cinerea (the causal agent of tomato Botrytis) and incubated in a saturated atmosphere at 20° C. for 48 h, and then moved to a growth chamber at 24° C. for 3 days, after which time visual disease ratings were made.
as §2

For a further assay, the system named is Septoria nodorum. In words: Test E: Septoria glume blotch, preventive spray on wheat seedlings, visual disease rating. To be noted: 200 ppm test suspension sprayed to run-off on wheat seedlings; 100 = 100% disease control, 0 = no control.
From the text: as §1
The test suspension was sprayed to the point of run-off on wheat seedlings. The following day the seedlings were inoculated with a spore suspension of Septoria nodorum (the causal agent of Septoria glume blotch) and incubated in a saturated atmosphere at 24° C. for 48 h, and then moved to a growth chamber at 20° C. for 9 days, after which time visual disease ratings were made.
as §2

For assay [2], the system named is Puccinia recondita f. sp. tritici. In words: Test A: wheat leaf rust, preventive spray on wheat seedlings, visual disease rating. The note with it: 100 = 100% disease control, 0 = no control.
From the text: as §1
The test suspension was sprayed to the point of run-off on wheat seedlings. The following day the seedlings were inoculated with a spore suspension of Puccinia recondita f. sp. tritici (the causal agent of wheat leaf rust) and incubated in a saturated atmosphere at 20° C. for 24 h, and then moved to a growth chamber at 20° C. for 6 days, after which time visual disease ratings were made.
as §2

The next assay deals with Septoria tritici. In words: Test B: wheat leaf blotch, preventive spray on wheat seedlings, visual disease rating. The note with it: 100 = 100% disease control, 0 = no control.
From the text: as §1
The test suspension was sprayed to the point of run-off on wheat seedlings. The following day the seedlings were inoculated with a spore suspension of Septoria tritici (the causal agent of wheat leaf blotch) and incubated in a saturated atmosphere at 24° C. for 48 h, and then moved to a growth chamber at 20° C. for 19 days, after which time visual disease ratings were made.
as §2

Where [3] appears, read: 200 ppm test suspension sprayed to run-off on wheat seedlings.
Where [4] appears, read: 200 ppm test suspension sprayed to run-off on tomato seedlings.
Setting [5] is: 250 ppm (asterisk) test suspension sprayed to run-off on wheat seedlings.
The mark [6] stands for this setting: 250 ppm (asterisk) test suspension sprayed to run-off on tomato seedlings.

As for `Cc1nn(C)c(-c2c(F)cc(/C=C/C3CC3)cc2F)c1C(O)c1ccc(F)cc1Cl` (stereo not drawn) [Compound 1], the “Test D disease control rating” value in assay [1] (setting [3]) was determined as 98%. Also, the “Test C disease control rating” value in the assay on Botrytis cinerea (setting [4]) is 0%. Moreover, in the assay on Septoria nodorum, the “Test E disease control rating” value came to 0%. Further, the “Test A disease control rating” value in assay [2] (setting [3]) is 68%.

With `Cc1nn(C)c(-c2c(F)cc(C#CC3CC3)cc2F)c1C(O)c1ccc(F)cc1Cl` (stereo not drawn) [Compound 2], the “Test D disease control rating” value in assay [1] (setting [3]) turned out to be 98%. Moreover, in the assay on Botrytis cinerea (setting [4]), the “Test C disease control rating” value is listed as 98%. For the same molecule, the “Test E disease control rating” value with Septoria nodorum is reported as 100%. Also, the “Test A disease control rating” value in assay [2] (setting [3]) is on record as 95%.

On to `Cc1nn(C)c(-c2c(F)cc(-n3cccn3)cc2F)c1C(O)c1ccc(F)cc1Cl` (stereo not drawn) [Compound 3, α-(2-chloro-4-fluorophenyl)-5-[2,6-difluoro-4-(1H-pyrazol-1-yl)phenyl]-1,3-dimethyl-1H-pyrazole-4-methanol], for which the “Test D disease control rating” value in assay [1] (setting [3]) turned out to be 81%. Moreover, the “Test C disease control rating” value with Botrytis cinerea (setting [4]) came out at 59%. The “Test E disease control rating” value in the assay on Septoria nodorum is on record as 98%. The “Test A disease control rating” value in assay [2] (setting [3]) worked out at 68%.

On to `Cc1nn(C)c(-c2c(F)cc(-n3ccc(C(F)(F)F)n3)cc2F)c1C(O)c1ccc(F)cc1Cl` (stereo not drawn) [Compound 4], for which, in assay [1] (setting [3]), the “Test D disease control rating” value was found to be 0%. In addition, in the assay with Botrytis cinerea (setting [4]), the “Test C disease control rating” value is 0%. The “Test E disease control rating” value in the assay on Septoria nodorum worked out at 0%. For the same molecule, the “Test A disease control rating” value in assay [2] (setting [3]) is 0%.

On to `C#CCOc1cc(F)c(-c2c(C(O)c3ccc(F)cc3Cl)c(C)nn2C)c(F)c1` (stereo not drawn) [Compound 5], for which the “Test D disease control rating” value in assay [1] (setting [3]) is listed as 99%. Besides, in the assay with Septoria tritici (setting [3]), the “Test B disease control rating” value is 99%. For the same molecule, the “Test C disease control rating” value with Botrytis cinerea (setting [4]) was found to be 98%. The “Test A disease control rating” value in assay [2] (setting [3]) came out at 100%.

Consider `C=CCOc1cc(F)c(-c2c(C(O)c3ccc(F)cc3Cl)c(C)nn2C)c(F)c1` (stereo not drawn) [Compound 6], for which the “Test D disease control rating” value in assay [1] (setting [3]) was determined as 95%. Moreover, the “Test B disease control rating” value in the assay on Septoria tritici (setting [3]) was determined as 99%. In addition, the “Test C disease control rating” value in the assay on Botrytis cinerea (setting [4]) amounted to 99%. Further, the “Test A disease control rating” value in assay [2] (setting [3]) came out at 99%.

As for `Cc1nn(C)c(-c2c(F)cc(C3CO3)cc2F)c1C(O)c1ccc(F)cc1Cl` (stereo not drawn) [Compound 8], the “Test D disease control rating” value in assay [1] (setting [3]) was 27%. The “Test B disease control rating” value in the assay with Septoria tritici (setting [3]) was found to be 95%. Also, in the assay with Botrytis cinerea (setting [4]), the “Test C disease control rating” value stood at 30%. Also, in the assay with Septoria nodorum, the “Test E disease control rating” value worked out at 0%. Besides, the “Test A disease control rating” value in assay [2] (setting [3]) is 90%.

With `Cc1nn(C)c(-c2c(F)cc(OCCC(C)C)cc2F)c1C(O)c1ccc(F)cc1Cl` (stereo not drawn) [Compound 9, α-(2-chloro-4-fluorophenyl)-5-[2,6-difluoro-4-(3-methylbutoxy)phenyl]-1,3-dimethyl-1H-pyrazole-4-methanol], the “Test D disease control rating” value in assay [1] (setting [5]) is given as 21* %. For the same molecule, in the assay with Septoria tritici (setting [3]), the “Test B disease control rating” value was determined as 87%. In the assay on Botrytis cinerea (setting [4]), the “Test C disease control rating” value is 0%. The “Test E disease control rating” value in the assay with Septoria nodorum turned out to be 0%. The “Test A disease control rating” value in assay [2] (setting [3]) worked out at 9%.

As to `Cc1nn(C)c(-c2c(F)cc(OCC3CC3)cc2F)c1C(O)c1ccc(F)cc1Cl` (stereo not drawn) [Compound 10, α-(2-chloro-4-fluorophenyl)-5-[4-(cyclopropylmethoxy)-2,6-difluorophenyl]-1,3-dimethyl-1H-pyrazole-4-methanol], the “Test D disease control rating” value in assay [1] (setting [3]) is 94%. The “Test B disease control rating” value in the assay on Septoria tritici (setting [3]) is 96%. For the same molecule, the “Test C disease control rating” value with Botrytis cinerea (setting [4]) was found to be 12%. Also, the “Test E disease control rating” value in the assay with Septoria nodorum amounted to 100%. The “Test A disease control rating” value in assay [2] (setting [3]) was found to be 99%.

Take `Cc1nn(C)c(-c2c(F)cc(/C=N/O)cc2F)c1C(O)c1ccc(F)cc1Cl` (stereo not drawn) [Compound 11]: the “Test D disease control rating” value in assay [1] (setting [3]) is 69%. For the same molecule, the “Test B disease control rating” value with Septoria tritici (setting [3]) stood at 98%. Also, the “Test C disease control rating” value in the assay on Botrytis cinerea (setting [4]) was found to be 15%. Also, the “Test E disease control rating” value in the assay on Septoria nodorum amounted to 0%. Also, the “Test A disease control rating” value in assay [2] (setting [3]) came to 86%.

Take `CCCCOc1cc(F)c(-c2c(C(O)c3ccc(F)cc3Cl)c(C)nn2C)c(F)c1` (stereo not drawn) [Compound 13]: the “Test D disease control rating” value in assay [1] (setting [3]) is listed as 98%. Moreover, in the assay on Septoria tritici (setting [3]), the “Test B disease control rating” value is recorded as 98%. Further, the “Test C disease control rating” value in the assay with Botrytis cinerea (setting [4]) is given as 0%. The “Test A disease control rating” value in assay [2] (setting [3]) was 0%.

Turning to `CO/N=C/c1cc(F)c(-c2c(C(O)c3ccc(F)cc3Cl)c(C)nn2C)c(F)c1` (stereo not drawn) [Compound 14], the “Test D disease control rating” value in assay [1] (setting [3]) came to 95%. The “Test B disease control rating” value in the assay on Septoria tritici (setting [3]) is 99%. Further, the “Test C disease control rating” value with Botrytis cinerea (setting [4]) came out at 39%. Also, in assay [2] (setting [3]), the “Test A disease control rating” value was found to be 100%.

On to `Cc1nn(C)c(-c2c(F)cc(OCC3CCCO3)cc2F)c1C(O)c1ccc(F)cc1Cl` (stereo not drawn) [Compound 15], for which the “Test D disease control rating” value in assay [1] (setting [5]) was 95* %. Also, in the assay with Septoria tritici (setting [5]), the “Test B disease control rating” value was 100* %. Also, the “Test C disease control rating” value in the assay with Botrytis cinerea (setting [6]) was 98* %. In addition, the “Test A disease control rating” value in assay [2] (setting [5]) is given as 98* %.

Regarding `Cc1nn(C)c(-c2c(F)cc(OCC3OCCO3)cc2F)c1C(O)c1ccc(F)cc1Cl` (stereo not drawn) [Compound 19], in assay [1] (setting [5]), the “Test D disease control rating” value was 95* %. The “Test B disease control rating” value in the assay on Septoria tritici (setting [5]) is on record as 99* %. Also, in the assay with Botrytis cinerea (setting [6]), the “Test C disease control rating” value was 100* %. Moreover, in assay [2] (setting [5]), the “Test A disease control rating” value was 100* %.
